SMILES strings stand for the structures. Counter-ions that a name gives are not always drawn.

In one experiment the test system is pituitary cells. Kind of experiment: Pituitary Cell Culture Assay for Growth Hormone (GH) Secretion. To be noted: 0.75 h; stimulation of GH secretion, cultured rat anterior pituitary cells, 45 min at room temperature, rat GH radioimmunoassay. The format is cell-based. The text has this:
Growth hormone secretagogue activity can be determined using a typical assay which may employ pituitary cells established in culture, followed by a challenge with the various compounds of formula I, and the levels of growth hormone determined accordingly. Growth hormone levels may be calculated using various radioimmunoassay techniques known to those of skill in the art. One example of such an assay is detailed herein.
Pituitary Cell Culture Assay for Growth Hormone (GH) Secretion
Fifteen 250 g male Sprague-Dawley rats are used for each assay. The animals are killed by decapitation and anterior pituitaries are removed and placed into ice cold culture medium. The pituitaries are sectioned in small pieces and enzymatically digested using trypsin (Difco) to weaken connective tissue. Pituitary cells are dispersed by mechanical agitation, collected, pooled and then seeded into 96-well plates (50,000 cells/well). After 5 days of culture, the cells formed as monolayer (70-80% confluent). Cells are then washed with medium (without phenol red) and incubated for 90 min at 37° C. Afterwards the cells are challenged to secrete GH by the addition of GH secretagogues to the medium. After 45 min at room temperature, the medium is removed, filtered and stored frozen until radioimmunoassays for rat GH were performed. Doses of secretagogue are added in triplicates. Compounds disclosed herein are active in the assay as described. The compounds cause a stimulation of GH secretion resulting in at least 20% increase of the basal level of GH with and EC50<500 nM. […] Both EC50 and efficacy values were calculated by the 4-parameter logistic equation. Such values were pooled and represented as mean+/−standard error, when appropriate.
What is called EC50 is the concentration giving half of the maximal effect. A low value points to greater potency. For `CCN(CC1=C(c2ccc(S(C)(=O)=O)cc2)S(=O)(=O)NC12CCCCC2)C(=O)[C@@H](COCc1cc(F)ccc1F)NC(=O)C(C)(C)N` [Example 2, 2-(R)-2-(2-Amino-2-methylpropionylamino)-3-(2,5-difluorophenyl)methoxypropionic acid N-ethyl-N-(3-(4-methanesulfonyl-phenyl)-2,2-dioxo-2-thia-1-azaspiro[4.5]dec-3-ene-4-ylmethyl)amide Hydrochloride], a half-maximal response (EC50) required 0.23 nM.

`CCN(CC1=C(c2ccc(S(C)(=O)=O)cc2)S(=O)(=O)NC12CCCCC2)C(=O)[C@@H](COCc1ccc(F)c(F)c1)NC(=O)C(C)(C)N` [Example 4, 2-(R)-2-(2-Amino-2-methylpropionylamino)-3-(3,4-difluorophenyl)methoxypropionic acid N-ethyl-N-(3-(4-methanesulfonyl-phenyl)-2,2-dioxo-2-thia-1-azaspiro[4.5]dec-3-ene-4-ylmethyl)amide Hydrochloride] showed an EC50 of 0.9 nM.

The compound `CCN(CC1=C(c2ccc(S(C)(=O)=O)cc2)S(=O)(=O)NC12CCCCC2)C(=O)[C@@H](COCc1cc(F)cc(F)c1)NC(=O)C(C)(C)N` [Example 5, 2-(R)-2-(2-Amino-2-methylpropionylamino)-3-(3,5-difluorophenyl)methoxypropionic acid N-ethyl-N-(3-(4-methanesulfonyl-phenyl)-2,2-dioxo-2-thia-1-azaspiro[4.5]dec-3-ene-4-ylmethyl)amide Hydrochloride] registered a half-maximal effective concentration (EC50) of 0.6 nM.

`CN(CC1=C(c2ccc(Cl)cc2)S(=O)(=O)NC1(C)C)C(=O)[C@@H](COCc1ccc(F)cc1)NC(=O)C(C)(C)N` [Example 7, 2-(R)-2-(2-Amino-2-methylpropionylamino)-3-(4-fluorophenyl)methoxy propionic acid N-[5-(4-chlorophenyl)-3,3-dimethyl-1,1-dioxo-2,3-dihydroisothiazol-4-ylmethyl]-N-methylamide Hydrochloride] yielded a concentration giving a half-maximal response (EC50) of 1.7 nM.

Staying with this experiment, now noted: stimulation of GH secretion, cultured rat anterior pituitary cells, 45 min at room temperature, rat GH radioimmunoassay.
For `CCN(CC1=C(c2ccc(Cl)cc2)S(=O)(=O)NC1(C)C)C(=O)[C@@H](COCc1ccc(F)cc1F)NC(=O)C(C)(C)N` [Example 12, 2-(R)-2-(2-Amino-2-methylpropionylamino)-3-(2,4-difluorophenyl)methoxy propionic acid N-[5-(4-chlorophenyl)-3,3-dimethyl-1,1-dioxo-2,3-dihydroisothiazol-4-ylmethyl]-N-ethylamide Hydrochloride], the EC50 turned out to be 8 nM.

For the compound `CCN(CC1=C(c2ccc(Cl)cc2)S(=O)(=O)NC1(C)C)C(=O)[C@@H](COCc1cc(F)ccc1F)NC(=O)C(C)(C)N` [Example 15, 2-(R)-2-(2-Amino-2-methylpropionylamino)-3-(2,5-difluorophenyl)methoxy propionic acid N-[5-(4-chlorophenyl)-3,3-dimethyl-1,1-dioxo-2,3-dihydroisothiazol-4-ylmethyl]-N-ethylamide Hydrochloride], the EC50 amounted to 2.1 nM.

In turn, `CCN(CC1=C(c2ccc(Cl)cc2)S(=O)(=O)NC1(C)C)C(=O)[C@@H](COCc1c(F)cccc1F)NC(=O)C(C)(C)N` [Example 16, 2-(R)-2-(2-Amino-2-methylpropionylamino)-3-(2,6-difluorophenyl)methoxy propionic acid N-[5-(4-chlorophenyl)-3,3-dimethyl-1,1-dioxo-2,3-dihydroisothiazol-4-ylmethyl]-N-ethylamide Hydrochloride] came in with an EC50 of 1.1 nM.
